Results: patent publication US20130158362A1 (INFACARE PHARMACEUTICAL CORPORATION, priority 2011, published 2013)

System: total serum bilirubin (TSB)
Assay: Phase 2b trial: total serum bilirubin (TSB), adjusted and unadjusted, change from baseline
Assay type: in vivo, human
Parameters: total serum bilirubin / total serum bilirubin, Delta (change from baseline) / Change from baseline of total serum bilirubin: unit not given here
Settings: for total serum bilirubin / total serum bilirubin, Delta (change from baseline): 48 hours, preliminary data; for change from baseline in adjusted TSB, LS mean difference versus placebo, MMRM / change from baseline in adjusted TSB, LS means (SEM), MMRM: observed case
Description: Three cohorts of subjects were recruited. This clinical study was designed to evaluate safety and efficacy parameters in each cohort.
Scheduled assessments (including TSB) occurred before treatment and at 0.75 and 2 hours (or 1.5 and 3 hours, depending on PK blood sampling assignment); 6, 12, 24, 48, and 72 hours; and 14 and 30 (except TSB) days after treatment or early termination.
The primary efficacy endpoint was the change in adjusted TSB from baseline to 48 hours after treatment. The adjusted TSB was a calculation of the percentage variance of the TSB level from the age specific threshold for PT initiation per the AAP Guidelines, i.e., an indication of the distance below the PT threshold by time.
The Secondary Efficacy Endpoints were the change from baseline in unadjusted TSB at 48 hours after treatment, change from baseline in adjusted and unadjusted TSB at various other time points after treatment, percent change from baseline in unadjusted TSB, proportion of subjects who require PT/exchange transfusion (ET), time to PT/ET, duration of PT and time to hospital discharge.
Intent-to-treat population (ITT): Defined as all subjects who were randomly assigned treatment in the clinical study, had received IMP, and had at least 1 post baseline TSB measurement during the first 48 hours after treatment. Subjects were summarized based on randomized treatment.
Analysis of Efficacy Parameters: The primary efficacy analysis applied the analysis of covariance (ANCOVA) method to determine if there was a significant difference between treatment groups in change in adjusted TSB levels from baseline to 48 hours post baseline after controlling for the effects of gestational age and adjusted baseline TSB levels. If assumptions of ANCOVA appeared to be violated, a Wilcoxon rank-sum test could be performed instead. Time-to-event variables were analyzed using the Kaplan-Meier method, and Kaplan-Meier survival curves were presented.

[1] = 1.5 mg/kg IM, 6 h, ITT, LOCF, ANCOVA
[2] = 1.5 mg/kg IM, 12 h, ITT, LOCF, ANCOVA
[3] = 1.5 mg/kg IM, 24 h, ITT, LOCF, ANCOVA
[4] = 1.5 mg/kg IM, 48 h/early termination, ITT, LOCF
[5] = 1.5 mg/kg IM, 48 h, ITT, LOCF, ANCOVA
[6] = 1.5 mg/kg IM, 72 h, ITT, LOCF, ANCOVA
[7] = 1.5 mg/kg IM, 14 days/early termination, ITT, LOCF
[8] = 1.5 mg/kg IM, 14 days/early termination, ITT, LOCF, ANCOVA
[9] = 1.5 mg/kg versus the placebo group, 48 Hours/Early termination, PP Population, ANCOVA
[10] = 1.5 mg/kg, 48 Hours/Early termination, PP Population, LOCF
[11] = 1.5 mg/kg, 6 hrs, unadjusted TSB, ITT Population

tin IV mesoporphyrin IX dichloride [Stannsoporfin]
total serum bilirubin (1.5 mg/kg IM (N = 10), treated per protocol): 10.96 ± 1.8
adjusted TSB, Mean (SD) (1.5 mg/kg IM, 6 h, ITT, LOCF): −17.77 (13.326) %
change from baseline in adjusted TSB, Mean (SD) (1.5 mg/kg IM, 6 h, ITT, LOCF): 2.47 (7.928) %
change from baseline in adjusted TSB, Median (1.5 mg/kg IM, 6 h, ITT, LOCF): 2.80%
change from baseline in unadjusted TSB, Mean (SD) (1.5 mg/kg IM, 6 h, ITT, LOCF): 1.50 (0.861) mg/dL
change from baseline in unadjusted TSB, Median (1.5 mg/kg IM, 6 h, ITT, LOCF): 1.50 mg/dL
unadjusted TSB, Mean (SD) (1.5 mg/kg IM, 6 h, ITT, LOCF): 9.09 (2.175) mg/dL
unadjusted TSB, Median (1.5 mg/kg IM, 6 h, ITT, LOCF): 9.60 mg/dL
change from baseline in adjusted TSB, LS mean (SEM) [1]: 2.72 (2.053) %
change from baseline in adjusted TSB, LS mean difference versus placebo [1]: −1.67%
change from baseline in unadjusted TSB, LS Mean (SEM) [1]: 1.38 (0.242) mg/dL
change from baseline in unadjusted TSB, LS Mean Difference versus placebo [1]: -0.21 mg/dL
change from baseline in adjusted TSB, LS mean difference versus placebo, MMRM (1.5 mg/kg IM, 6 h, ITT): −1.44%
change from baseline in adjusted TSB, LS means (SEM), MMRM (1.5 mg/kg IM, 6 h, ITT): 2.94 (2.098) %
adjusted TSB, Mean (SD) (1.5 mg/kg IM, 12 h, ITT, LOCF): −17.41 (17.294) %
change from baseline in adjusted TSB, Mean (SD) (1.5 mg/kg IM, 12 h, ITT, LOCF): 2.83 (12.949) %
change from baseline in adjusted TSB, Median (1.5 mg/kg IM, 12 h, ITT, LOCF): 5.70%
change from baseline in unadjusted TSB, Mean (SD) (1.5 mg/kg IM, 12 h, ITT, LOCF): 2.22 (1.624) mg/dL
change from baseline in unadjusted TSB, Median (1.5 mg/kg IM, 12 h, ITT, LOCF): 2.50 mg/dL
unadjusted TSB, Mean (SD) (1.5 mg/kg IM, 12 h, ITT, LOCF): 9.82 (2.599) mg/dL
unadjusted TSB, Median (1.5 mg/kg IM, 12 h, ITT, LOCF): 10.20 mg/dL
change from baseline in adjusted TSB, LS mean (SEM) [2]: 4.54 (3.015) %
change from baseline in adjusted TSB, LS mean difference versus placebo [2]: −2.59%
change from baseline in unadjusted TSB, LS Mean (SEM) [2]: 2.21 (0.374) mg/dL
change from baseline in unadjusted TSB, LS Mean Difference versus placebo [2]: -0.39 mg/dL
change from baseline in adjusted TSB, LS mean difference versus placebo, MMRM (1.5 mg/kg IM, 12 h, ITT): −2.67%
change from baseline in adjusted TSB, LS means (SEM), MMRM (1.5 mg/kg IM, 12 h, ITT): 3.29 (2.731) %
adjusted TSB, Mean (SD) (1.5 mg/kg IM, 24 h, ITT, LOCF): −24.44 (18.927) %
change from baseline in adjusted TSB, Mean (SD) (1.5 mg/kg IM, 24 h, ITT, LOCF): −4.20 (16.064) %
change from baseline in adjusted TSB, Median (1.5 mg/kg IM, 24 h, ITT, LOCF): −4.30%
change from baseline in unadjusted TSB, Mean (SD) (1.5 mg/kg IM, 24 h, ITT, LOCF): 2.24 (2.084) mg/dL
change from baseline in unadjusted TSB, Median (1.5 mg/kg IM, 24 h, ITT, LOCF): 2.70 mg/dL
unadjusted TSB, Mean (SD) (1.5 mg/kg IM, 24 h, ITT, LOCF): 9.84 (2.656) mg/dL
unadjusted TSB, Median (1.5 mg/kg IM, 24 h, ITT, LOCF): 10.80 mg/dL
change from baseline in adjusted TSB, LS mean (SEM) [3]: −7.62 (4.320) %
change from baseline in adjusted TSB, LS mean difference versus placebo [3]: −7.53%
change from baseline in unadjusted TSB, LS Mean (SEM) [3]: 1.98 (0.549) mg/dL
change from baseline in unadjusted TSB, LS Mean Difference versus placebo [3]: -0.76 mg/dL
change from baseline in adjusted TSB, LS mean difference versus placebo, MMRM (1.5 mg/kg IM, 24 h, ITT): −3.77%
change from baseline in adjusted TSB, LS means (SEM), MMRM (1.5 mg/kg IM, 24 h, ITT): −5.33 (3.948) %
adjusted TSB, Mean (SD) [4]: −35.09 (19.198) %
adjusted TSB, Median [4]: −27.10%
change from baseline in adjusted TSB, Mean (SD) (1.5 mg/kg IM, 48 h, ITT, LOCF): −14.85 (15.442) %
change from baseline in adjusted TSB, Median (1.5 mg/kg IM, 48 h, ITT, LOCF): −12.30%
change from baseline in unadjusted TSB, Mean (SD) (1.5 mg/kg IM, 48 h, ITT, LOCF): 2.32 (2.560) mg/dL
change from baseline in unadjusted TSB, Median (1.5 mg/kg IM, 48 h, ITT, LOCF): 2.70 mg/dL
unadjusted TSB, Mean (SD) (1.5 mg/kg IM, 48 h, ITT, LOCF): 9.91 (3.116) mg/dL
unadjusted TSB, Median (1.5 mg/kg IM, 48 h, ITT, LOCF): 10.90 mg/dL
change from baseline in adjusted TSB, LS mean (SEM) (primary endpoint) [5]: −15.03 (5.273) %
change from baseline in adjusted TSB, LS mean difference versus placebo [5]: −13.45%
change from baseline in unadjusted TSB, LS Mean (SEM) [5]: 2.43 (0.842) mg/dL
change from baseline in unadjusted TSB, LS Mean Difference versus placebo [5]: -1.81 mg/dL
change from baseline in adjusted TSB, LS mean (SEM) (primary endpoint) (1.5 mg/kg IM, 48 h, ITT, LOCF, ANCOVA, listed as stannsoporfin): 15.0%
change from baseline in adjusted TSB, LS mean difference versus placebo, MMRM (1.5 mg/kg IM, 48 h, ITT): −8.26%
change from baseline in adjusted TSB, LS means (SEM), MMRM (1.5 mg/kg IM, 48 h, ITT): −14.94 (5.019) %
total serum bilirubin (1.5 mg/kg IM, intent to treat): 9.91 ± 3.1
total serum bilirubin, Delta (change from baseline) (1.5 mg/kg IM, intent to treat): 2.32 ± 2.5
total serum bilirubin, Delta (change from baseline) (1.5 mg/kg IM, treated per protocol): 3.44 ± 1.5
adjusted TSB, Mean (SD) (1.5 mg/kg IM, 72 h/early termination, ITT, LOCF): −44.82 (19.254) %
change from baseline in adjusted TSB, Mean (SD) (1.5 mg/kg IM, 72 h, ITT, LOCF): −24.58 (15.743) %
change from baseline in adjusted TSB, Median (1.5 mg/kg IM, 72 h, ITT, LOCF): −22.10%
change from baseline in unadjusted TSB, Mean (SD) (1.5 mg/kg IM, 72 h, ITT, LOCF): 1.76 (2.790) mg/dL
change from baseline in unadjusted TSB, Median (1.5 mg/kg IM, 72 h, ITT, LOCF): 2.40 mg/dL
unadjusted TSB, Mean (SD) (1.5 mg/kg IM, 72 h, ITT, LOCF): 9.35 (3.409) mg/dL
unadjusted TSB, Median (1.5 mg/kg IM, 72 h, ITT, LOCF): 10.60 mg/dL
change from baseline in adjusted TSB, LS mean (SEM) [6]: −21.94 (6.232) %
change from baseline in adjusted TSB, LS mean difference versus placebo [6]: −17.19%
change from baseline in unadjusted TSB, LS Mean (SEM) [6]: 2.43 (1.077) mg/dL
change from baseline in unadjusted TSB, LS Mean Difference versus placebo [6]: -2.52 mg/dL
change from baseline in unadjusted TSB, Mean (SD) [7]: −4.08 (2.322) mg/dL
change from baseline in unadjusted TSB, Median [7]: -4.00 mg/dL
unadjusted TSB, Mean (SD) [7]: 3.52 (2.751) mg/dL
unadjusted TSB, Median [7]: 2.80 mg/dL
change from baseline in unadjusted TSB, LS Mean (SEM) [8]: −4.04 (1.258) mg/dL
change from baseline in unadjusted TSB, LS Mean Difference versus placebo [8]: -1.74 mg/dL
48 Hours/Early termination change from baseline in unadjusted TSB, LS mean difference [9]: -0.97 mg/dL
P-value of LS mean difference, change from baseline in unadjusted TSB [9]: 0.338
48 Hours/Early termination change from baseline in unadjusted TSB, Max [10]: 5.2 mg/dL
48 Hours/Early termination change from baseline in unadjusted TSB, Mean (SD) [10]: 3.44 (1.458) mg/dL
48 Hours/Early termination change from baseline in unadjusted TSB, Median [10]: 3.40 mg/dL
48 Hours/Early termination change from baseline in unadjusted TSB, Min [10]: 0.7 mg/dL
48 Hours/Early termination unadjusted TSB, Max [10]: 12.8 mg/dL
48 Hours/Early termination unadjusted TSB, Mean (SD) [10]: 10.96 (1.842) mg/dL
48 Hours/Early termination unadjusted TSB, Median [10]: 11.35 mg/dL
48 Hours/Early termination unadjusted TSB, Min [10]: 6.8 mg/dL
48 Hours/Early termination change from baseline in unadjusted TSB, LS mean (SEM) (1.5 mg/kg, 48 Hours/Early termination, PP Population, LOCF, ANCOVA): 2.96 (0.868) mg/dL
6 hrs Percent Change from Baseline in TSB, Max [11]: 42.0%
6 hrs Percent Change from Baseline in TSB, Mean (SD) [11]: 20.13 (12.268) %
6 hrs Percent Change from Baseline in TSB, Min [11]: −1.7%
6 hrs TSB, Max [11]: 14.1 mg/dL
